Results from patent US20260166121A1, “COMPOSITIONS AND METHODS FOR THE TREATMENT OF HEMORRHAGIC SHOCK” (Children's Hospital Medical Center, priority 2022, published 2026).

How the values were obtained:
[1] = test system: AMPKα1 wild-type (WT) and knockout (KO) mice; assay: ATP assay in heart tissue after hemorrhagic shock; assay type: in vivo; conditions: 100 μg/kg intra-arterially, 3 h after resuscitation
Excerpt: (§1) Murine model of hemorrhagic shock. The experiments conformed to the Guide for the Care and Use of Laboratory Animals published by the US National Institutes of Health (Eighth edition, 2011) and had the approval of the Institutional Animal Care and Use Committee. Homozygous AMPKα1 wild-type (WT) and AMPKα1 knockout (KO) mice were established on a C57/BL6 genetic background by the crossbreeding (>10 generations) of a breeding pair provided by Dr. Benoit Viollet of the University of Paris Descartes (Paris, France). For these experiments, female AMPKα1 WT and KO mice were generated by a breeding scheme utilizing heterozygous mutant mice. Female mice were used at random stages of the estrous cycle at the age of 3 to 5 months and assigned to the different experimental groups after routine genotyping by quantitative polymerase chain reaction. All mice were allowed free access to water and a maintenance diet in a 12-h light/dark cycle, with room temperature at 21±2° C. Mice were anesthetized with pentobarbital (80 mg/kg) intraperitoneally and prepared for hemorrhagic shock, as previously described. […] Mice were monitored for 3 hours after resuscitation for cardiovascular parameters. […]
ATP assay. ATP levels were measured in heart tissue homogenates using a commercially available ATP assay kit (BioVision, Milpitas, CA) and following the protocol recommended by the manufacturer.

[2] = test system: AMPKα1 wild-type (WT) and knockout (KO) mice; assay: Transmission electron microscopy of heart tissue mitochondria after hemorrhagic shock; assay type: in vivo; conditions: 100 μg/kg intra-arterially
Excerpt: as §1, with “C.” for “C. Mice were anesthetized with pentobarbital (80 mg/kg) intraperitoneally and prepared for hemorrhagic shock, as previously described.”
Transmission electron microscopy. […] The total number of mitochondria, and the presence of abnormal mitochondria with loose matrix, fragmented cristae and membranes were determined in four consecutive cells in four different sections for each animal by using NIH ImageJ analysis.

STAT3 = assay: Western blot of STAT3, pSTAT3(Ser727), pSTAT3(Tyr705) in cytosol and nuclear extracts of lung and heart; assay type: in vivo, mice
Excerpt: (§2) Murine model of hemorrhagic shock. The experiments conformed to the Guide for the Care and Use of Laboratory Animals published by the US National Institutes of Health (Eighth edition, 2011) and had the approval of the Institutional Animal Care and Use Committee. Homozygous AMPKα1 wild-type (WT) and AMPKα1 knockout (KO) mice were established on a C57/BL6 genetic background by the crossbreeding (>10 generations) of a breeding pair provided by Dr. Benoit Viollet of the University of Paris Descartes (Paris, France). For these experiments, female AMPKα1 WT and KO mice were generated by a breeding scheme utilizing heterozygous mutant mice. Female mice were used at random stages of the estrous cycle at the age of 3 to 5 months and assigned to the different experimental groups after routine genotyping by quantitative polymerase chain reaction. All mice were allowed free access to water and a maintenance diet in a 12-h light/dark cycle, with room temperature at 21±2° C. Mice were anesthetized with pentobarbital (80 mg/kg) intraperitoneally and prepared for hemorrhagic shock, as previously described. Briefly, either the left or right femoral artery was cannulated using PE-10 tubing, and connected to a blood pressure transducer (PowerLab, AD Instruments, Colorado Springs, CO) for measurement of mean arterial blood pressure (MABP) and heart rate (HR). Blood was removed from the femoral artery over a 10-minute period until MABP reached 30±5 mmHg. The mice were kept in this MABP range for 90 min by additional blood removal or small volume transfusion. At the end of the shock period, mice were resuscitated by infusing their shed blood and twice that amount in Lactated Ringer's solution over a 10-min period. AMPKα1 WT and KO mice were also randomly assigned to two treatment groups: a vehicle group (distilled water, 500 μL) and a humanin-G (100 μg/kg) group. Drug treatment was given intra-arterially as single bolus right before resuscitation, and at 1 and 2 hours thereafter. Dose of humanin was chosen according to reported pharmacokinetics and pharmacodynamics of the drug in the mice. Mice were monitored for 3 hours after resuscitation for cardiovascular parameters. […] Mice were sacrificed at 3 hours after resuscitation and blood, heart and lungs were collected for biochemical assays.
Cytosol and nuclear extracts. Heart and lung tissues were homogenized using a Polytron homogenizer (Brinkman Instruments, West Orange, NY) in a buffer containing 0.32 M sucrose, 10 mM TrisHCl (pH 7.4), 1 mM EGTA, 2 mM EDTA, 5 mM NaN3, 10 mM β-mercaptoethanol, […], 0.15 mM pepstatin A, 0.2 mM phenylmethanesulfonyl fluoride, 50 mM NaF, 1 mM sodium orthovanadate, and 0.4 nM microcystin. Samples were centrifuged at 1,000 g for 10 min at […] and the supernatants collected as cytosol extracts. The pellets were then solubilized in Triton buffer (1% Triton X-100, 250 mM NaCl, 50 mM Tris HCl at pH 7.5, 3 mM EGTA, 3 mM EDTA, 0.1 mM phenylmethanesulfonyl fluoride, 0. 1 mM sodium orthovanadate, 10% glycerol, 2 mM p-nitrophenyl phosphate, 0.5% NP-40, and […]). The lysates were centrifuged at 15,000 g for 30 min at […] and the supernatant collected as nuclear extracts. The Bradford protein assay was used for quantitative determination of total proteins.
Western blot analysis. Cytosol and nuclear content of STAT3 and its two phosphorylated active forms pSTAT3(Tyr705) and pSTAT3(Ser727), and mitochondrial content of pSTAT3(Ser727) and the Complex I subunit GRIM-19 (gene associated with retinoid-IFN-induced mortality) were determined by immunoblotting analyses. Extracts were heated at 70° C. in equal volumes of ×4 Protein Sample Loading Buffer. Twenty μg of protein were loaded per lane on a 10% Bis-Tris gel. Proteins were separated electrophoretically and transferred to nitrocellulose membranes. […]

[3] = test system: AMPKα1 wild-type (WT) and knockout (KO) mice; assay: Plasma levels of cytokines (multiplex array) after hemorrhagic shock; assay type: in vivo; conditions: AMPKα1 WT or KO mice; 100 μg/kg intra-arterially; 3 h after resuscitation
Excerpt: as §1, with “C.” for “C. Mice were anesthetized with pentobarbital (80 mg/kg) intraperitoneally and prepared for hemorrhagic shock, as previously described.”
Plasma levels of cytokines. Plasma levels of interleukin (IL)-1β, IL-6, IL-10, IL-17, keratinocyte-derived chemokine (KC), and tumor necrosis factor-α (TNFα) were evaluated by a commercially available multiplex array system (Linco-Research, St. Charles, MO) using the protocol recommended by the manufacturer.

[4] = test system: AMPKα1 wild-type (WT) and knockout (KO) mice; assay: Plasma levels of humanin by competitive ELISA after hemorrhagic shock; assay type: in vivo; conditions: 100 μg/kg intra-arterially, 3 h after resuscitation
Excerpt: as §1
Plasma levels of humanin. Endogenous plasma levels of humanin were measured by competitive ELISA ([…], MyBioSource, San Diego, CA) using the protocol recommended by the manufacturer.

[5] = test system: AMPKα1 wild-type (WT) and knockout (KO) mice; assay: Murine hemorrhagic shock model: mean arterial blood pressure and heart rate; assay type: in vivo
Excerpt: Murine model of hemorrhagic shock. The experiments conformed to the Guide for the Care and Use of Laboratory Animals published by the US National Institutes of Health (Eighth edition, 2011) and had the approval of the Institutional Animal Care and Use Committee. Homozygous AMPKα1 wild-type (WT) and AMPKα1 knockout (KO) mice were established on a C57/BL6 genetic background by the crossbreeding (>10 generations) of a breeding pair provided by Dr. Benoit Viollet of the University of Paris Descartes (Paris, France). For these experiments, female AMPKα1 WT and KO mice were generated by a breeding scheme utilizing heterozygous mutant mice. Female mice were used at random stages of the estrous cycle at the age of 3 to 5 months and assigned to the different experimental groups after routine genotyping by quantitative polymerase chain reaction. All mice were allowed free access to water and a maintenance diet in a 12-h light/dark cycle, with room temperature at 21±2° C. Mice were anesthetized with pentobarbital (80 mg/kg) intraperitoneally and prepared for hemorrhagic shock, as previously described. Briefly, either the left or right femoral artery was cannulated using PE-10 tubing, and connected to a blood pressure transducer (PowerLab, AD Instruments, Colorado Springs, CO) for measurement of mean arterial blood pressure (MABP) and heart rate (HR). Blood was removed from the femoral artery over a 10-minute period until MABP reached 30±5 mmHg. The mice were kept in this MABP range for 90 min by additional blood removal or small volume transfusion. At the end of the shock period, mice were resuscitated by infusing their shed blood and twice that amount in Lactated Ringer's solution over a 10-min period. AMPKα1 WT and KO mice were also randomly assigned to two treatment groups: a vehicle group (distilled water, 500 μL) and a humanin-G (100 μg/kg) group. Drug treatment was given intra-arterially as single bolus right before resuscitation, and at 1 and 2 hours thereafter. […] Mice were monitored for 3 hours after resuscitation for cardiovascular parameters. […]

[6] = test system: AMPKα1 wild-type (WT) and knockout (KO) mice; assay: Lung myeloperoxidase assay (neutrophil infiltration) after hemorrhagic shock; assay type: in vivo; conditions: 100 μg/kg intra-arterially, 3 h after resuscitation
Excerpt: as §1, with “C.” for “C. Mice were anesthetized with pentobarbital (80 mg/kg) intraperitoneally and prepared for hemorrhagic shock, as previously described.”
Myeloperoxidase assay. Myeloperoxidase (MPO) activity was determined as an index of neutrophil accumulation. […] The rate of change in absorbance was measured by spectrophotometry at 650 nm. MPO activity was defined as the quantity of enzyme degrading […] of hydrogen peroxide/min at 37° C. and expressed in units per 100 mg weight of tissue.

[7] = test system: STAT3 and Complex I subunit GRIM-19; assay: Western blot of pSTAT3(Ser727) and GRIM-19 in mitochondrial extracts of lung and heart; assay type: in vivo, mice
Excerpt: as §2
Mitochondrial extracts. Mitochondria were isolated from hearts and lungs using a commercially available mitochondria isolation kit (TermoFisher Scientific, Waltham, MA) and following the protocol recommended by the manufacturer. The Bradford protein assay was used for quantitative determination of total proteins.
Western blot analysis. Cytosol and nuclear content of STAT3 and its two phosphorylated active forms pSTAT3(Tyr705) and pSTAT3(Ser727), and mitochondrial content of pSTAT3(Ser727) and the Complex I subunit GRIM-19 (gene associated with retinoid-IFN-induced mortality) were determined by immunoblotting analyses. Extracts were heated at 70° C. in equal volumes of ×4 Protein Sample Loading Buffer. Twenty μg of protein were loaded per lane on a 10% Bis-Tris gel. Proteins were separated electrophoretically and transferred to nitrocellulose membranes. Immunoblotting was performed using the IBind Flex Western System (Thermo Fischer Scientific, Waltham, MA) that applies sequential lateral flow to perform blocking and antibody binding. […] For all immunoblotting, the Odyssey LI-COR scanner and software (LI-COR Biotechnology, Lincoln, NE) were used for detection and quantitative analysis.

[8] = test system: AMPKα1 wild-type (WT) and knockout (KO) mice; assay: Lung histopathologic analysis after hemorrhagic shock; assay type: in vivo; conditions: 100 μg/kg intra-arterially, 3 h after resuscitation
Excerpt: as §1
Histopathologic analysis. […] Sections were stained with hematoxylin and eosin and evaluated by an independent observer blinded to the treatment groups. […]

mice with sepsis = conditions: cited from earlier work
[9] = test system: AMPKα1 and AMPKα2 subunits; conditions: thoracic aortas; mice with sepsis; cited from earlier work
[10] = heart, WT mice, 100 μg/kg intra-arterially
[11] = lung, mice of both genotypes, 100 μg/kg intra-arterially
[12] = heart mitochondria, WT or KO mice, compared to vehicle-treated mice

Question: For “[Gly14]-Humanin (MAPRGFSCLLLLTGEIDLPVKRRA) [humanin-G, synthetic humanin analogue, serine at position 14 replaced by glycine]”, which “cardiac ATP levels” value [1] is on record?
Answer: increased

Question: What about the cardiac mitochondrial damage ([2]; AMPKα1 KO mice, 3 h after resuscitation) of the same substance?
Answer: reduced

Question: What about the “cardiac mitochondrial structural changes” value ([2]; AMPKα1 WT mice after hemorrhagic shock) of the same substance?
Answer: No abnormal structural changes

Question: And the “cytosolic or nuclear expression of pSTAT3(Ser727) in heart” value (STAT3; [10])?
Answer: did not affect

Question: And the “cytosolic or nuclear expression of pSTAT3(Tyr705) in heart” value (STAT3; [10])?
Answer: did not affect

Question: What about the “total levels of STAT3 in heart” value (STAT3; heart, across experimental groups, WT or KO mice) of the same substance?
Answer: no difference

Question: What about the “total levels of STAT3 in lung” value (STAT3; lung, across experimental groups, WT or KO mice) of the same substance?
Answer: no difference

Question: And the “pSTAT3(Ser727) in lung cytosol and nucleus” value (STAT3; [11])?
Answer: upregulated only in the nucleus

Question: What about the “pSTAT3(Tyr705) in lung cytosol and nucleus” value (STAT3; [11]) of the same substance?
Answer: further upregulated

Question: What about the “plasma levels of cytokines (IL-1β, IL-6, IL-10, IL-17, KC, TNFα)” value [3] of the same substance?
Answer: did not affect

Question: What about the “plasma humanin levels compared to vehicle-treated groups” value ([4]; AMPKα1 WT and KO mice) of the same substance?
Answer: not statistically different

Question: What about the “plasma levels of humanin compared to control mice” value ([4]; AMPKα1 WT mice, but not KO mice) of the same substance?
Answer: comparable with levels of control mice

Question: And the “MABP recovery to baseline” value ([5]; AMPKα1 KO mice, 100 μg/kg intra-arterially at resuscitation, 1 h, 2 h)?
Answer: did not completely recover to baseline

Question: What about the “mean arterial blood pressure (MABP)” value ([5]; AMPKα1 WT and KO female mice, 100 μg/kg intra-arterially at resuscitation and 1 h and 2 h thereafter, compared to vehicle-treated groups) of the same substance?
Answer: significantly ameliorated

Question: And the “heart rate (HR)” value ([5]; AMPKα1 WT or KO mice, 100 μg/kg intra-arterially, compared to vehicle-treated groups)?
Answer: did not affect

Question: What about the “lung MPO activity” value [6] of the same substance?
Answer: significantly reduced

Question: And the “mitochondrial expression of GRIM-19 in heart” value [7, 12]?
Answer: did not affect

Question: What about the “mitochondrial expression of pSTAT3(Ser727) in heart” value [7, 12] of the same substance?
Answer: did not affect

Question: What about the “mitochondrial expression of pSTAT3(Ser727) in lung” value ([7]; isolated lung mitochondria, WT and KO mice, 100 μg/kg intra-arterially) of the same substance?
Answer: slightly, but not significantly, increased

Question: What about the “GRIM-19 expression in lung mitochondria” value ([7]; KO mice, 100 μg/kg intra-arterially) of the same substance?
Answer: did not affect

Question: And the “GRIM-19 expression in lung mitochondria” value ([7]; WT mice, 100 μg/kg intra-arterially)?
Answer: restored levels of GRIM-19 similarly to basal levels

Question: What about the “lung architecture (histology)” value [8] of the same substance?
Answer: significantly improved

Question: For “colivelin: synthetic analogue of humanin; SALLRSIPAPAGASRLLLLTGEIDLP (SEQ ID NO: 8)”, which “organ injury in experimental septic shock” value (mice with sepsis; mice, Urban C, et al. 2022) is on record?
Answer: protective effects

Question: And the “endothelial damage in mice with sepsis” value (mice with sepsis; thoracic aortas)?
Answer: ameliorating

Question: And the “activation of AMPKα1 and AMPKα2 subunits” value [9]?
Answer: activates
